Measured values reported in ChEMBL document CHEMBL3301361, “Experimental in vitro DMPK and physicochemical data on a set of publicly disclosed compounds”.
In brackets after ≈: the same amount, converted by molar mass.

What was measured:
physchem [1] = conditions: octan-1-ol/water
in vitro [2] = conditions: human
physchem [3] = conditions: pH 7.4 buffer
in vitro [4] = conditions: human, plasma, PPB

Structure (SMILES) | logD (physchem [1]; pH 7.4, LogD7.4) | microsomal CLint (in vitro [2]; liver microsomes) | solubility thermodynamic (physchem [3]) | fraction unbound at 5 h (in vitro [4]) | microsomal CLint (in vitro [2]; microsomes) | logD (physchem [1]; pH 7.4)
O=c1ncn2nc(Sc3ccc(F)cc3F)ccc2c1-c1c(Cl)cccc1Cl [NEFLAMAPIMOD] | 2.74 | 3 µL/min/mg | 18.6 µM (≈ 8.11 µg/mL) | – | – | –
Cc1ccc2[nH]ccc2c1-c1nc(N2CCOCC2)cc(C2(S(C)(=O)=O)CC2)n1 | 1.7 | 5.75 µL/min/mg | 95.5 µM (≈ 39.4 µg/mL) | – | – | –
CCN(C(=O)Cc1ccc(S(C)(=O)=O)cc1)C1CCN(CCC(c2ccccc2)c2ccc(NC(C)=O)cc2)CC1 (centres undefined) | 2.09 | < 3 µL/min/mg | 692 µM (≈ 398 µg/mL) | – | – | –
CCc1ccc(OCC(=O)O)c(-c2ccc(S(C)(=O)=O)cc2)c1 | – | – | – | 0.0568 | < 3 µL/min/mg | –
CS(=O)(=O)C1(c2cc(N3CCOCC3)nc(-c3cccc4[nH]ccc34)n2)CC1 | – | 11.2 µL/min/mg | 4.6 µM (≈ 1.83 µg/mL) | – | – | –
CC(=O)Nc1ccc(CNc2[nH]nc3cccc(Oc4ccc(S(C)(=O)=O)cc4)c23)cc1 | 2.63 | 75 µL/min/mg | 4.3 µM (≈ 1.94 µg/mL) | – | – | –
CC(C)Cn1c(=O)n(C)c(=O)c2cn(Cc3cccc4ccccc34)cc21 | 4.41 | – | 1 µM (≈ 0.361 µg/mL) | – | 14 µL/min/mg | –
Cc1ccc(NC(=O)c2ccccc2F)cc1-n1cnc2ccc(N3CCN(C)CC3)cc2c1=O | 2.75 | – | 933 µM (≈ 440 µg/mL) | – | 3 µL/min/mg | –
CN(CCOc1ccccc1-c1cc(C(N)=O)c(NC(N)=O)s1)Cc1ccccc1 | 3.46 | > 150 µL/min/mg | 1.5 µM (≈ 0.637 µg/mL) | – | – | –
CN(C)CC(O)COc1ccc(Nc2ncc(Cl)c(Nc3ccccc3)n2)cc1 (centres undefined) | – | 5 µL/min/mg | 38.9 µM (≈ 16.1 µg/mL) | – | – | –
COc1ccc(CC(=O)N(C)C2CCN(CCC(c3ccccc3)c3ccccc3)CC2)cc1OC | 3.4 | 112 µL/min/mg | 324 µM (≈ 157 µg/mL) | – | – | –
CCN(C(=O)Cc1ccc(S(C)(=O)=O)cc1)C1CCN(CCC(c2ccccc2)c2ccc(NC(=O)C(C)(C)C)cc2)CC1 (centres undefined) | 2.98 | < 3 µL/min/mg | 100 µM (≈ 61.8 µg/mL) | – | – | –
CCN(C(=O)Cc1ccc(S(C)(=O)=O)cc1)C1CCN(CC[C@@H](c2ccccc2)N2CCN(S(=O)(=O)C(F)(F)F)CC2)CC1 | – | 18 µL/min/mg | 288 µM (≈ 190 µg/mL) | – | – | –
CCN(C(=O)NCc1c(F)cccc1F)C1CCN(CCC(c2ccccc2)c2ccccc2)CC1 | – | 6 µL/min/mg | 24 µM (≈ 11.8 µg/mL) | – | – | –
COc1ccc(OC)c(CNc2[nH]nc3cccc(Oc4ccc(S(C)(=O)=O)cc4)c23)c1 | 3.71 | 103 µL/min/mg | 2.2 µM (≈ 0.998 µg/mL) | – | – | –
CCN(C(=O)Cc1ccc(S(C)(=O)=O)cc1)C1CCN(CCC(c2ccccc2)c2ccc(C)cc2)CC1 (centres undefined) | – | 66 µL/min/mg | 75.9 µM (≈ 40.4 µg/mL) | – | – | –
COc1cccc(C(=O)Nc2ccc(C)c(-n3cnc4ccc(N5CCN(C)CC5)cc4c3=O)c2)c1 | 3.08 | 16 µL/min/mg | 219 µM (≈ 106 µg/mL) | – | – | –
COc1ccccc1C(=O)Nc1ccc(C)c(-n2cnc3ccc(N4CCN(C)CC4)cc3c2=O)c1 | 2.93 | 7 µL/min/mg | 75.9 µM (≈ 36.7 µg/mL) | – | – | –
CCN(C(=O)NCc1ccc(S(C)(=O)=O)cc1)C1CCN(CCC(c2ccccc2)c2ccccc2)CC1 | 2.86 | < 3 µL/min/mg | 282 µM (≈ 150 µg/mL) | – | – | –
Fc1cnc(Nc2ccccc2)nc1Nc1ccccc1 | – | 7 µL/min/mg | 1.3 µM (≈ 0.364 µg/mL) | – | – | –
CCCSc1nc(N[C@@H]2C[C@H]2c2ccccc2)c2nnn([C@@H]3C[C@H](OCCO)[C@@H](O)[C@H]3O)c2n1 | 3.87 | < 3 µL/min/mg | 1 µM (≈ 0.487 µg/mL) | – | – | –
NC(=O)Nc1cc(-c2ccccc2)sc1C(N)=O | 2.43 | 27 µL/min/mg | 17 µM (≈ 4.44 µg/mL) | – | – | –
CC(=O)c1ccc(N2CCN(S(=O)(=O)C[C@]34CC[C@H](CC3=O)C4(C)C)CC2)nc1 | 2.21 | > 150 µL/min/mg | – | – | – | –
CN(C(=O)Cc1ccc(F)cc1)C1CCN(CCC(c2ccccc2)c2ccccc2)CC1 | – | < 3 µL/min/mg | 129 µM (≈ 57.3 µg/mL) | – | – | –

Structure (SMILES) | logD (physchem [1]; pH 7.4, LogD7.4) | microsomal CLint (in vitro [2]; liver microsomes) | solubility thermodynamic (physchem [3]) | fraction unbound at 5 h (in vitro [4]) | microsomal CLint (in vitro [2]; microsomes) | logD (physchem [1]; pH 7.4)
Cc1cnc(Oc2ccc(-n3ccnc3)cc2)nc1Oc1ccc2c(c1)OCO2 | 3.56 | < 3 µL/min/mg | – | – | – | –
CC1(C)[C@@H]2CC[C@@]1(CS(=O)(=O)NC1CCN(c3ccc(C(F)(F)F)cn3)CC1)C(=O)C2 | 3.84 | 75 µL/min/mg | – | – | – | –
O=C(CC1CCCCC1)Nc1c(Cl)ccc2nc(NCCCO)ccc12 | 3.29 | – | – | – | 25 µL/min/mg | –
CC(NCC(O)c1ccc([N+](=O)[O-])cc1)C12CC3CC(CC(C3)C1)C2 (centres undefined) | 3.53 | 30.5 µL/min/mg | – | – | – | –
CSc1nc(-c2ccccc2)nn1Cc1ccccc1 | 3.83 | – | – | – | 116 µL/min/mg | –
COc1ccc(C(=O)NCCN2CCN(Cc3ccc(Cl)c(Cl)c3)CC2)cc1Cl | 3.74 | – | – | – | 50.5 µL/min/mg | –
CSc1nccc(Nc2cc(NC(=O)c3cc(F)cc(N4CCOCC4)c3)ccc2C)n1 | – | 83 µL/min/mg | 0.7 µM (≈ 0.317 µg/mL) | – | – | –
CCN(C(=O)Cc1ccc(S(C)(=O)=O)cc1)C1CCN(CC[C@@H](c2cc(F)cc(F)c2)N2CCN(S(C)(=O)=O)CC2)CC1 | 1.25 | – | 1260 µM (≈ 807 µg/mL) | – | 7.5 µL/min/mg | –
O=C(NC[C@@H](O)CN1CCC(Oc2ccc(Cl)c(Cl)c2)CC1)c1c[nH]c2ccccc12 | 3.91 | – | – | – | < 3 µL/min/mg | –
CCN(C(=O)Cc1ccc(S(C)(=O)=O)cc1)C1CCN(CCC(c2ccccc2)c2ccc(NS(C)(=O)=O)cc2)CC1 (centres undefined) | 1.84 | < 3 µL/min/mg | 174 µM (≈ 106 µg/mL) | – | – | –
COc1ccccc1CNCCc1cccc(CCNC[C@H](O)c2ccc(O)c3[nH]c(=O)sc23)c1 | 0.91 | 56 µL/min/mg | – | – | – | –
COc1ccc(-c2ccnc(N)n2)cc1 | 2.08 | 41 µL/min/mg | – | – | – | –
O=c1[nH]c(-c2ccc([N+](=O)[O-])cc2)nc2ccccc12 | 2.5 | – | 1.9 µM (≈ 0.508 µg/mL) | – | 53.7 µL/min/mg | –
Cc1ccc(F)c(Nc2ccnc(Nc3ccc(S(N)(=O)=O)cc3)n2)c1 | 3.1 | 18 µL/min/mg | 4.4 µM (≈ 1.64 µg/mL) | – | – | –
Cc1ccc(S(=O)(=O)NC(=O)N2CCC(N3CCC(Oc4ccc(F)c(F)c4)CC3)CC2)cc1 | 0.75 | < 3 µL/min/mg | – | – | – | –
O=C(O)C(c1ccccc1)N1CCCC(CN2CCC(Oc3ccc(Cl)c(Cl)c3)CC2)C1 (centres undefined) | 2.6 | < 3 µL/min/mg | – | – | – | –
CC(=O)Nc1ccc(O)cc1OC[C@@H](O)CN1CCC2(CC1)Cc1cc(F)ccc1O2 | 2.1 | – | – | – | < 3 µL/min/mg | –
COc1cccc2c(-c3c(C)n(CC(=O)O)c4ccc(C)cc34)ccnc12 | 0.49 | 5 µL/min/mg | – | – | – | –
Nc1nc(Nc2cccc(Br)c2)c2[nH]cnc2n1 | 3.04 | – | – | – | 16 µL/min/mg | –
Cc1cc(Oc2ccc3c(c2)OCO3)nc(Oc2ccc(-n3ccnc3)cc2)n1 | 3.47 | < 3 µL/min/mg | – | – | – | –
O=C(O)CSCC(=O)Nc1nc(-c2ccc(F)cc2)cs1 | -0.2 | < 3 µL/min/mg | – | – | – | –
O=C(O)[C@@H](c1ccccc1)N1CCC(CN2CCC(Oc3ccc(Cl)c(Cl)c3)CC2)CC1 | 2.14 | – | – | – | < 3 µL/min/mg | –
Nc1nc2nc(SCc3cccc(F)c3F)[nH]c(=O)c2s1 | 2.5 | < 3 µL/min/mg | – | – | – | –
CCN(C(=O)Cc1ccc([N+](=O)[O-])cc1)C1CCN(CCC(c2ccccc2)c2ccccc2)CC1 | 4.1 | 13 µL/min/mg | – | – | – | –

Structure (SMILES) | logD (physchem [1]; pH 7.4, LogD7.4) | microsomal CLint (in vitro [2]; liver microsomes) | solubility thermodynamic (physchem [3]) | fraction unbound at 5 h (in vitro [4]) | microsomal CLint (in vitro [2]; microsomes) | logD (physchem [1]; pH 7.4)
C[C@H](CO)Nc1nc(SCc2cccc(F)c2F)nc2[nH]c(=O)ccc12 | 3.36 | 9 µL/min/mg | – | – | – | –
O=C(NO)c1ccc(NS(=O)(=O)c2ccccc2)cc1 | 0.75 | 12 µL/min/mg | 316 µM (≈ 92.4 µg/mL) | – | – | –
COc1ccc(C=NN=Cc2ccc(OC)c(OC)c2)cc1OC | 3.38 | 19 µL/min/mg | – | – | – | –
Nc1nccc(-n2ccc3ccccc32)n1 | 2.71 | 112 µL/min/mg | – | – | – | –
N#Cc1cc(Cl)ccc1O[C@H](CCN)c1ccccc1 | 0.91 | < 3 µL/min/mg | – | – | – | –
O=C(NCC1CCCCC1)c1cc(-n2ncc(=O)[nH]c2=O)ccc1Cl | 1.26 | – | – | – | 8.5 µL/min/mg | –
Cc1ccc(C(=O)Nc2nccs2)cc1-n1cnc2ccc(N3CCN(C)CC3)cc2c1=O | 2.56 | 7 µL/min/mg | 91.2 µM (≈ 42 µg/mL) | – | – | –
OC[C@H]1C[C@@H](n2nnc3c(N[C@@H]4C[C@H]4c4ccccc4)nc(SCCC(F)(F)F)nc32)[C@H](O)[C@@H]1O | – | – | 0.3 µM (≈ 0.153 µg/mL) | – | < 3 µL/min/mg | 4.06
CCCC1CCCCC(N)=N1 (centres undefined) | 1.1 | < 3 µL/min/mg | – | – | – | –
N#Cc1ccc(Nc2nccc(NC3CC3)n2)cc1 | 3.01 | 45 µL/min/mg | – | – | – | –
O=c1[nH]c2c(O)ccc([C@@H](O)CNCCCSCCNCCc3cccc(Cl)c3)c2s1 | 1.06 | 20 µL/min/mg | – | – | – | –
c1ccc2c(c1)[nH]c1cnccc12 [NORHARMANE] | – | 89 µL/min/mg | 339 µM (≈ 57 µg/mL) | – | – | –
O=C(NS(=O)(=O)c1cccc(Cl)c1)N1CCC(N2CCC(Oc3ccc(Cl)c(Cl)c3)CC2)CC1 | 2.62 | 6 µL/min/mg | – | – | – | –
COc1ccc(C)c(NC(=O)CC23CC4CC(CC(C4)C2)C3)c1 | 3.96 | > 150 µL/min/mg | – | – | – | –
CN1CCN(C(=O)c2cc3cc(Br)ccc3[nH]2)CC1 | 2.79 | 20.5 µL/min/mg | – | – | – | –
Cc1ccc(C(=O)Nc2ccon2)cc1NC(=O)c1cnn(-c2ccccc2F)c1N | 2.6 | < 3 µL/min/mg | – | – | – | –
COc1cc2ncnc(Nc3ccc(OCc4ccccn4)c(C)c3)c2cc1OC | 3.6 | 15 µL/min/mg | 0.9 µM (≈ 0.362 µg/mL) | – | – | –
CCCCc1nc2c(N)nc3ccccc3c2n1Cc1ccccc1 | 4.17 | – | – | – | 6 µL/min/mg | –
Cc1ccc(S(=O)(=O)NC(=O)N2CCC(N3CCC(Oc4ccc(Cl)cc4C)CC3)CC2)cc1 | 1.79 | 6 µL/min/mg | – | – | – | –
C(#Cc1n[nH]c2ccccc12)c1ccccc1 | 4.31 | – | – | – | 35 µL/min/mg | –
Cc1ccc(NC(=O)c2cncs2)cc1-n1cnc2ccc(N3CCN(C)CC3)cc2c1=O | 2.11 | – | 537 µM (≈ 247 µg/mL) | – | < 3 µL/min/mg | –
O=C(NC[C@@H](O)CN1CCC(Oc2ccc(Cl)c(Cl)c2)CC1)n1c(=O)[nH]c2ccccc21 | 4.46 | – | – | – | < 3 µL/min/mg | –
